The values that follow come from ChEMBL document CHEMBL1148055, “Bioactive terpenoids from Octocorallia, I. Bioactive diterpenoids: litophynols A and B from the mucus of the soft coral Litophyton sp” (J Nat Prod, 1994).

The structures appear in SMILES notation.

The series can be described thus: Toxicity against rabbit RBC assessed as hemolytic activity after 15 mins. In kind it is cell-based, Oryctolagus cuniculus. The following applies: erythrocyte, 0.25 h.
Take `C=C1CC[C@H](C(C)C)[C@@H]2[C@H]1[C@H]1C[C@](C)(O)[C@@H](O)CC[C@@](C)(OC(=O)CCC)[C@@H]2O1` [LITOPHYNIN E]: the Activity result is “Toxic”.

In the case of `C=C1[C@@H]2[C@H]([C@H](C(C)C)C[C@H]1OC(C)=O)[C@@H]1O[C@H]2C[C@](C)(O)[C@H](O)CC[C@@]1(C)OC(=O)CCC` [LITOPHYNIN I MONOACETATE], the Activity entry is recorded as “Toxic”.

In the case of `C=C1CC[C@H](C(C)C)[C@@H]2[C@H]1[C@@H]1O[C@H]2[C@](C)(OC(=O)CCC)CC[C@H](O)C(=C)[C@H]1O` [LITOPHYNOL A], the Activity result was “Toxic”.

With `C=C1CC[C@H](C(C)C)[C@@H]2[C@H]1[C@@H]1O[C@H]2[C@](C)(OC(=O)CCC)CC[C@H](O)[C@@](C)(O)[C@H]1O` [LITOPHYNOL B], the Activity result was “Toxic”.
